We go through two molecules from patent US20040087633A1, “Methylidene oxazolidinone compound and preparation method thereof” (Korea Institute of Science and Technology, priority 2002, published 2004).

Holding throughout (test): Anti-microbial activity test in vitro (agar dilution MIC)
The test system of one assay is CRSA C1062. In kind it is cell-based, Staphylococcus aureus. The following applies: CRSA C1062; Agar Dilution method, Mueller Hinton Agar, 18 hours at 37° C. The gist of the method: (§1)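 Visual endpoint: minimum inhibitory concentration (μg/ml) by agar dilution, Mueller Hinton medium, twofold steps, 18 h at 37 °C.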
(Agar dilution tests growth on a series of plates holding different concentrations.)

In the next assay the test system is CRSA C6043. Format: cell-based, Staphylococcus aureus. To be noted: CRSA C6043; Agar Dilution method, Mueller Hinton Agar, 18 hours at 37° C. The gist of the method:
as §1

The subject of another assay is MRSA C2207. In kind it is cell-based, Staphylococcus aureus. The following applies: MRSA C2207; Agar Dilution method, Mueller Hinton Agar, 18 hours at 37° C. The method in brief: as §1
The subject of a further assay is MRSA C5100. Format: cell-based, Staphylococcus aureus. The following applies: MRSA C5100; Agar Dilution method, Mueller Hinton Agar, 18 hours at 37° C. The method in brief: as §1
The next assay relates to MRSA C6068. Format: cell-based, Staphylococcus aureus. The following applies: MRSA C6068; Agar Dilution method, Mueller Hinton Agar, 18 hours at 37° C. The gist of the method: as §1
The next assay relates to MSSA C2214. Format: cell-based, Staphylococcus aureus. The following applies: MSSA C2214; Agar Dilution method, Mueller Hinton Agar, 18 hours at 37° C. The method in brief:
as §1

The test system of the next assay is MSSA C7142. Format: cell-based, Staphylococcus aureus. To be noted: MSSA C7142; Agar Dilution method, Mueller Hinton Agar, 18 hours at 37° C. The method in brief: as §1
The subject of a further assay is E. faecalis ATCC29212. In kind it is cell-based. The following applies: E. faecalis ATCC29212; Agar Dilution method, Mueller Hinton Agar, 18 hours at 37° C. The method in brief: as §1
A further assay relates to E. faecalis C6288. Format: cell-based. To be noted: E. faecalis C6288; Agar Dilution method, Mueller Hinton Agar, 18 hours at 37° C. The gist of the method: as §1
The next assay concerns E. faecalis C6291. Format: cell-based. To be noted: E. faecalis C6291; Agar Dilution method, Mueller Hinton Agar, 18 hours at 37° C. The method in brief: as §1
The test system of another assay is E. faecium C2252. Format: cell-based. The following applies: E. faecium C2252; Agar Dilution method, Mueller Hinton Agar, 18 hours at 37° C. The gist of the method:
as §1

The test system of another assay is E. faecium C6301. Format: cell-based. To be noted: E. faecium C6301; Agar Dilution method, Mueller Hinton Agar, 18 hours at 37° C. The gist of the method: as §1
Another assay deals with S. aureus ATCC 29213. Format: cell-based. To be noted: Agar Dilution method, Mueller Hinton Agar, 18 hours at 37° C. The method in brief:
as §1

The next assay has as its system S. epidermidis ATCC12228. Format: cell-based. The following applies: S. epidermidis ATCC12228; Agar Dilution method, Mueller Hinton Agar, 18 hours at 37° C. The gist of the method: as §1
Another assay deals with S. epidermidis C2230. In kind it is cell-based. The following applies: S. epidermidis C2230; Agar Dilution method, Mueller Hinton Agar, 18 hours at 37° C. The gist of the method: as §1
For a further assay, the system named is S. epidermidis C2235. Format: cell-based. To be noted: S. epidermidis C2235; Agar Dilution method, Mueller Hinton Agar, 18 hours at 37° C. The method in brief:
as §1

For another assay, the system named is S. pyogenes ATCC8668. In kind it is cell-based. The following applies: S. pyogenes ATCC8668; Agar Dilution method, Mueller Hinton Agar, 18 hours at 37° C. The method in brief: as §1
The next assay concerns S. pyogenes C6003. Format: cell-based. The following applies: S. pyogenes C6003; Agar Dilution method, Mueller Hinton Agar, 18 hours at 37° C. The gist of the method:
as §1

The subject of a further assay is S. pyogenes C6012. Format: cell-based. To be noted: S. pyogenes C6012; Agar Dilution method, Mueller Hinton Agar, 18 hours at 37° C. The gist of the method:
as §1

The subject of the next assay is VRE C6487. Format: cell-based, Enterococcus faecium. The following applies: VRE C6487; Agar Dilution method, Mueller Hinton Agar, 18 hours at 37° C. The method in brief: as §1
In the next assay the test system is VRE C6488. Format: cell-based, Enterococcus faecium. The following applies: VRE C6488; Agar Dilution method, Mueller Hinton Agar, 18 hours at 37° C. The method in brief:
as §1

≈ marks a conversion by molar mass, not a printed value.

With “N-[[(5S)-3-[3-fluoro-4-(4-dicyanomethylidenepiperidinyl) phenyl]-2-oxo-5-oxazolidinyl]methyl]acetamide [Compound 6]”, the “Minimum inhibition concentration (MIC)” value worked out at 4 µg/mL in the assay with CRSA C1062; 4 µg/mL in the assay with CRSA C6043; 4 µg/mL in the assay with MRSA C2207; 4 µg/mL with MRSA C5100; 2 µg/mL in the assay on MRSA C6068; 4 µg/mL in the assay with MSSA C2214. Further, the “Minimum inhibition concentration (MIC)” value was 4 µg/mL in the assay on MSSA C7142; 4 µg/mL in the assay with E. faecalis ATCC29212; 4 µg/mL in the assay on E. faecalis C6288; 4 µg/mL in the assay with E. faecalis C6291; 4 µg/mL in the assay on E. faecium C2252; 2 µg/mL in the assay on E. faecium C6301. The “Minimum inhibition concentration (MIC)” value with S. aureus ATCC 29213 was determined as 2 µg/mL; with S. epidermidis ATCC12228, 1 µg/mL; in the assay with S. epidermidis C2230, 2 µg/mL; in the assay with S. epidermidis C2235, 2 µg/mL; in the assay on S. pyogenes ATCC8668 it was 1 µg/mL; with S. pyogenes C6003 it was 4 µg/mL. The figures for the “Minimum inhibition concentration (MIC)” value with S. pyogenes C6012, in the assay on VRE C6487 and in the assay on VRE C6488 were 1 µg/mL, 4 µg/mL and 2 µg/mL, respectively.
With `CC(=O)NC[C@H]1CN(c2ccc(N3CCC(=CC#N)CC3)c(F)c2)C(=O)O1` [Compound 8, N-[[(5S)-3-[3-fluoro-4-(4-cyanomethylidenepiperidinyl)-phenyl]-2-oxo-5-oxazolidinyl]methyl]acetamide], the “Minimum inhibition concentration (MIC)” value in the assay on CRSA C1062 was determined as 2 µg/mL (≈ 5.37 µM); with CRSA C6043, 2 µg/mL (≈ 5.37 µM); in the assay on MRSA C2207 it was 2 µg/mL (≈ 5.37 µM); with MRSA C5100, 2 µg/mL (≈ 5.37 µM); with MRSA C6068 it was 1 µg/mL (≈ 2.69 µM); in the assay on MSSA C2214, 4 µg/mL (≈ 10.7 µM). Moreover, the “Minimum inhibition concentration (MIC)” value in the assay on MSSA C7142, in the assay on E. faecalis ATCC29212, in the assay with E. faecalis C6288, in the assay with E. faecalis C6291, in the assay with E. faecium C2252 and in the assay on E. faecium C6301 was 2 µg/mL (≈ 5.37 µM) throughout. The “Minimum inhibition concentration (MIC)” value amounted to 2 µg/mL (≈ 5.37 µM) with S. aureus ATCC 29213; 0.5 µg/mL (≈ 1.34 µM) in the assay on S. epidermidis ATCC12228; 2 µg/mL (≈ 5.37 µM) with S. epidermidis C2230; 1 µg/mL (≈ 2.69 µM) in the assay on S. epidermidis C2235; 0.5 µg/mL (≈ 1.34 µM) in the assay on S. pyogenes ATCC8668; 2 µg/mL (≈ 5.37 µM) in the assay with S. pyogenes C6003. Moreover, the entries for the “Minimum inhibition concentration (MIC)” value in the assay with S. pyogenes C6012, with VRE C6487 and in the assay with VRE C6488 were 0.5 µg/mL (≈ 1.34 µM), 4 µg/mL (≈ 10.7 µM) and 4 µg/mL (≈ 10.7 µM), respectively.
